Like-named read-outs stand apart in the source and are kept apart here.
Key:
[1] = test system: BH4 levels in SK-N-BE (2) cells; assay: SKN-N-BE (2) cellular assay, BH4 levels by LC-MS; assay type: cell-based
[2] = biological target: SNAP-hSPR (sepiapterin reductase, SPR) (Homo sapiens, UniProt P35270); assay: biochemical; assay type: binding; conditions: terbium labelled SNAP-hSPR / SSZ labelled SNAP-EGFP; read-out: hTR-FRET IC50
[3] = Homo sapiens, SKNBE2, read-out: SK-N-BE(2) IC50, SK-N-BE (2) cells, BH4 levels by LC-MS

SNAP-hSPR (sepiapterin reductase, SPR), sequence (P35270 whole entry): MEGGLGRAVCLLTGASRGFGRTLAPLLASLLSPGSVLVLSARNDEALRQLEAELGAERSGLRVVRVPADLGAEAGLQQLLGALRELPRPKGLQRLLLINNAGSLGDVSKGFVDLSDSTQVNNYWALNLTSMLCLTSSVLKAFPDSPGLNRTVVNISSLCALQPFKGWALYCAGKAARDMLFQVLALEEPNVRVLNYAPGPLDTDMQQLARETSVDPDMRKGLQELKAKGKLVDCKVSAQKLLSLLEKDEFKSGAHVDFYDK

Cc1c(C(=O)N2CCC(C(O)(C(F)(F)F)C(F)(F)F)CC2)cnn1-c1nc2c(c(=O)[nH]1)CCC2 [Q-0701]
IC50 ([1]; read-out: SK-N-BE(2) IC50, SK-N-BE (2) cells, BH4 levels by LC-MS): 82 nM
IC50 [2]: 2 nM

Cc1cc(=O)[nH]c(-n2ncc(C(=O)N3CCc4ccccc4C3)c2C(F)F)n1 [Q-0332]
IC50 [1, 3]: 2500 nM
IC50 [2]: 10 nM

Cc1cc(=O)[nH]c(-n2ncc(C(=O)N3CCc4cccnc4C3)c2C)n1 [Q-0300]
IC50 [1, 3]: 5000 nM
IC50 [2]: 9 nM

Cc1cc(=O)[nH]c(-n2cc(C(=O)N3CCC(C(F)(F)F)CC3)cn2)n1 [Q-0443]
IC50 [1, 3]: 3900 nM
IC50 [2]: 9 nM

Cc1c(C(=O)N2CCC(Cc3ccccc3)CC2)cnn1-c1nc2c(c(=O)[nH]1)CCC2 [Q-0491]
IC50 [1, 3]: 37 nM
IC50 [2]: 20 nM

Cc1c(C(=O)N2CCN(c3ccc(Cl)c(Cl)c3)CC2)cnn1-c1nn2cccc2c(=O)[nH]1 [Q-0828]
IC50 [1, 3]: 50 nM
IC50 [2]: 4 nM

Cc1c(C(=O)N2CC3CC(F)(F)CC3C2)cnn1-c1nn2cccc2c(=O)[nH]1 (stereo not shown) [Q-0796]
IC50 [1, 3]: 200 nM
IC50 [2]: 1 nM

Cc1cc(=O)[nH]c(-n2ncc(C(=O)N3CCc4ccc(S(=O)(=O)N5CCOCC5)cc4C3)c2C)n1 [Q-0327]
IC50 [1, 3]: 12000 nM
IC50 [2]: 7 nM

CCC(C#N)C1CCN(C(=O)c2cnn(-c3nn4cccc4c(=O)[nH]3)c2C)CC1 (stereo not shown) [Q-0826]
IC50 [1, 3]: 100 nM
IC50 [2]: 1 nM

Cc1cc(=O)[nH]c(-n2ncc(C(=O)N3c4ccccc4CC3C)c2C)n1 (stereo not shown) [Q-0303]
IC50 [1, 3]: 900 nM
IC50 [2]: 7 nM

Cc1c(C(=O)N2CCN(c3ccccc3Cl)CC2)cnn1-c1nc2c(c(=O)[nH]1)CCC2 [Q-0570]
IC50 [1, 3]: 23 nM
IC50 [2]: 3 nM

Cc1c(C(=O)N2C[C@@H]3CN(C(=O)OC(C)(C)C)C[C@@H]32)cnn1-c1nn2cccc2c(=O)[nH]1 [Q-0857]
IC50 [1, 3]: 800 nM
IC50 [2]: 3 nM

O=C(c1cnc(-c2nc3ccsc3c(=O)[nH]2)s1)N1CCC(C(F)(F)F)CC1 [Q-0530]
IC50 [1, 3]: 1800 nM
IC50 [2]: 30 nM

Cc1c(C(=O)N2CCC3(CCCC3)CC2)cnn1-c1nc2ccsc2c(=O)[nH]1 [Q-0398]
IC50 [1, 3]: 72 nM
IC50 [2]: 10 nM

CCN(CC)C(=O)c1cnn(-c2nc(C)cc(=O)[nH]2)c1C [Q-0348]
IC50 [1, 3]: 6400 nM
IC50 [2]: 10 nM

O=C(c1cnn(-c2nc3ccsc3c(=O)[nH]2)c1)N1CCC(C2CC2)CC1 [Q-0711]
IC50 [1, 3]: 86 nM
IC50 [2]: 2 nM

Cc1c(C(=O)N2CCN(c3cccc(Cl)c3)CC2)cnn1-c1nn2cccc2c(=O)[nH]1 [Q-0830]
IC50 [1, 3]: 41 nM
IC50 [2]: 1 nM

Cc1c(C(=O)N2CCCC(Oc3ccccc3)C2)cnn1-c1nc2c(c(=O)[nH]1)CCC2 (stereo not shown) [Q-0468]
IC50 [1, 3]: 200 nM
IC50 [2]: 7 nM

Cc1c(C(=O)N2CCN(C(=O)C34CC(C(N)=O)(C3)C4)CC2)cnn1-c1nc2c(c(=O)[nH]1)CCC2 [Q-0630]
IC50 [1, 3]: 10000 nM
IC50 [2]: 9 nM

Cc1cc(=O)[nH]c(-n2ncc(C(=O)NC3CCCc4ccccc43)c2C)n1 (stereo not shown) [Q-0362]
IC50 [1, 3]: 2900 nM
IC50 [2]: 20 nM

Cc1c(C(=O)N2CCCCC2)cnn1-c1nn2cccc2c(=O)[nH]1 [Q-0634]
IC50 [1, 3]: 700 nM
IC50 [2]: 3 nM

Cc1c(C(=O)N2CC[C@@H]3CN(C(=O)OC(C)(C)C)[C@@H]3C2)cnn1-c1nn2cccc2c(=O)[nH]1 [Q-0788]
IC50 [1, 3]: 3600 nM
IC50 [2]: 10 nM

O=C(c1ccn(-c2nc3ccsc3c(=O)[nH]2)n1)N1CCC(C(F)(F)F)CC1 [Q-0390]
IC50 [1, 3]: 12000 nM
IC50 [2]: 20 nM

Cc1c(C(=O)N2CCN(c3ccc(C#N)cc3)CC2)cnn1-c1nn2cccc2c(=O)[nH]1 [Q-0829]
IC50 [1, 3]: 80 nM
IC50 [2]: 1 nM

Cc1cc(-n2cc(C(=O)N3CCC(C(F)(F)F)CC3)cn2)[nH]c(=O)c1 [Q-0460, 4-methyl-6-{4-[4-(trifluoromethyl)piperidine-1-carbonyl]-1H-pyrazol-1-yl}-1,2-dihydropyridin-2-one]
IC50 [1, 3]: 600 nM
IC50 [2]: 3 nM

Cc1cc(=O)[nH]c(-n2ncc(C(=O)N3CCc4ccccc4[C@@H]3C)c2C)n1 (single isomer, unassigned) [Q-0339]
IC50 [1, 3]: 1500 nM
IC50 [2]: 9 nM

Cc1c(C(=O)N2CC[C@H]3CCCC[C@H]3C2)cnn1-c1nc2ccsc2c(=O)[nH]1 [Q-0402]
IC50 [1, 3]: 41 nM
IC50 [2]: 10 nM

O=C(c1cnn(-c2nn3cc(F)cc3c(=O)[nH]2)c1)N1CCC(C(F)(F)F)CC1 [Q-0616, 6-fluoro-2-(4-(4-(trifluoromethyl)piperidine-1-carbonyl)-1H-pyrazol-1-yl)pyrrolo[1,2-f][1,2,4]triazin-4(3H)-one]
IC50 [1, 3]: 100 nM
IC50 [2]: 2 nM

Cc1c(C(=O)N2CCC(c3ccccc3)CC2)cnn1-c1nc2ccsc2c(=O)[nH]1 [Q-0495]
IC50 [1, 3]: 51 nM
IC50 [2]: 5 nM

Cc1cc(=O)[nH]c(-n2ncc(C(=O)N3CCc4ccc(C(F)(F)F)cc4C3)c2C)n1 [Q-0298]
IC50 [1, 3]: 1500 nM
IC50 [2]: 20 nM

Cc1c(C(=O)N2CCCCC2(C)C)cnn1-c1nc2ccsc2c(=O)[nH]1 [Q-0412]
IC50 [1, 3]: 500 nM
IC50 [2]: 9 nM

Cc1c(C(=O)N2CCC3OCCCC3C2)cnn1-c1nc2ccsc2c(=O)[nH]1 (stereo not shown) [Q-0557]
IC50 [1, 3]: 600 nM
IC50 [2]: 8 nM

Cc1c(C(=O)N(C)Cc2nnc(-c3ccc(Cl)cc3)o2)cnn1-c1nc2c(c(=O)[nH]1)CCC2 [Q-0486]
IC50 [1, 3]: 100 nM
IC50 [2]: 6 nM

Cc1c(C(=O)N2CCC3(CCNC3=O)CC2)cnn1-c1nn2cccc2c(=O)[nH]1 [Q-0848]
IC50 [1, 3]: 10000 nM
IC50 [2]: 2 nM

O=C(c1cnn(-c2nc3sccc3c(=O)[nH]2)c1)N1CCC(c2c[nH]c3ccccc23)CC1 [Q-0754]
IC50 [1, 3]: 100 nM
IC50 [2]: 9 nM

O=C(c1cnn(-c2nn3cccc3c(=O)[nH]2)c1)N1CCC(c2c[nH]c3ccccc23)CC1 [Q-0536]
IC50 [1, 3]: 59 nM
IC50 [2]: 7 nM

O=C(c1ccn(-c2nc3c(c(=O)[nH]2)CCC3)c1)N1CCC(C(F)(F)F)CC1 [Q-0732]
IC50 [1, 3]: 100 nM
IC50 [2]: 1 nM

Cc1c(C(=O)N2CCCC3(CC3)C2)cnn1-c1nn2cccc2c(=O)[nH]1 [Q-0819]
IC50 [1, 3]: 200 nM
IC50 [2]: 1 nM

Cc1c(C(=O)N2CC(c3ccc(F)c(F)c3)C2)cnn1-c1nn2cccc2c(=O)[nH]1 [Q-0771]
IC50 [1, 3]: 200 nM
IC50 [2]: 1 nM

CCN1CCN(C(=O)c2cnn(-c3nc(C)c(C)c(=O)[nH]3)c2C)CC1 [Q-0282]
IC50 [1, 3]: 4400 nM
IC50 [2]: 30 nM

CCCN(CCC)C(=O)c1cnn(-c2nc(C)cc(=O)[nH]2)c1C [Q-0351]
IC50 [1, 3]: 4600 nM
IC50 [2]: 10 nM

Cc1c(C(=O)N(CCC(F)(F)F)CC(F)(F)F)cnn1-c1nc2c(c(=O)[nH]1)CCC2 [Q-0435]
IC50 [1, 3]: 1200 nM
IC50 [2]: 20 nM

CCC1(C#N)CCN(C(=O)c2cnn(-c3nc4c(c(=O)[nH]3)CCC4)c2)CC1 [Q-0725]
IC50 [1, 3]: 100 nM
IC50 [2]: 1 nM

Cc1c(C(=O)N2CCC3(CCCN3Cc3ccccc3)C2)cnn1-c1nc2c(c(=O)[nH]1)CCC2 (stereo not shown) [Q-0551]
IC50 [1, 3]: 500 nM
IC50 [2]: 6 nM

Cc1c(C(=O)N2C3CCC2CC(O)(c2ccccc2)C3)cnn1-c1nc2c(c(=O)[nH]1)CCC2 (stereo not shown) [Q-0509]
IC50 [1, 3]: 68 nM
IC50 [2]: 3 nM

Cc1cc(=O)[nH]c(-n2ncc(CN3CCc4ccccc4C3)c2C)n1 [Q-0311]
IC50 [1, 3]: 11000 nM
IC50 [2]: 40 nM

Cc1cc(=O)[nH]c(-n2ncc(C(=O)N3CCN(c4ccccn4)CC3)c2Cc2ccccc2)n1 [Q-0369]
IC50 [1, 3]: 28000 nM
IC50 [2]: 200 nM

O=C(c1ccc(-c2nc3c(c(=O)[nH]2)CCC3)s1)N1CCC(C(F)(F)F)CC1 [Q-0609, 2-(5-(4-(trifluoromethyl)piperidine-1-carbonyl)thiophen-2-yl)-6,7-dihydro-3H-cyclopenta[d]pyrimidin-4(5H)-one]
IC50 [1, 3]: 84 nM
IC50 [2]: 1 nM

Cc1c(C(=O)N2CCC3(CC2)CC3c2nnc(-c3ccccc3)o2)cnn1-c1nc2c(c(=O)[nH]1)CCC2 (stereo not shown) [Q-0697]
IC50 [1, 3]: 200 nM
IC50 [2]: 4 nM

Cc1c(C(=O)N2CCC(C#N)(c3ccccc3)CC2)cnn1-c1nc2c(c(=O)[nH]1)CCC2 [Q-0473]
IC50 [1, 3]: 92 nM
IC50 [2]: 6 nM

O=C(c1cnn(-c2cc3ccsc3c(=O)[nH]2)c1)N1CCC(C(F)(F)F)CC1 [Q-0511, 5-{4-[4-(trifluoromethyl)piperidine-1-carbonyl]-1H-pyrazol-1-yl}-6H,7H-thieno[2,3-c]pyridin-7-one]
IC50 [1, 3]: 300 nM
IC50 [2]: 3 nM

Cc1c(C(=O)N2CC3COCC(C3)C2)cnn1-c1nc2c(c(=O)[nH]1)CCC2 [Q-0569]
IC50 [1, 3]: 300 nM
IC50 [2]: 10 nM

O=c1[nH]c(-c2cc(S(=O)(=O)N3CCC(C(F)(F)F)CC3)ccn2)nc2c1CCC2 [Q-0522]
IC50 [1, 3]: 10000 nM
IC50 [2]: 300 nM

Cc1c(C(=O)N2CCC(C(F)(F)F)CC2)ccnc1-c1nc2ccsc2c(=O)[nH]1 [Q-0564]
IC50 [1, 3]: 4000 nM
IC50 [2]: 200 nM

Cc1c(C(=O)N2CC3CN(c4ccccc4)CC3C2)cnn1-c1nn2cccc2c(=O)[nH]1 (stereo not shown) [Q-0846]
IC50 [1, 3]: 200 nM
IC50 [2]: 2 nM

O=C(c1cnn(-c2nn3cccc3c(=O)[nH]2)c1)N1CCC2(CC1)CC2 [Q-0708]
IC50 [1, 3]: 97 nM
IC50 [2]: 1 nM

Cc1c(C(=O)N2C[C@@H]3[C@H](C2)[C@@H]3C(N)=O)cnn1-c1nc2c(c(=O)[nH]1)CCC2 [Q-0610]
IC50 [1, 3]: 10000 nM
IC50 [2]: 10 nM

O=C(c1cnn(-c2nn3cccc3c(=O)[nH]2)c1)N1CCN(c2ccc(F)cc2F)CC1 [Q-0734]
IC50 [1, 3]: 300 nM
IC50 [2]: 4 nM

Cc1c(C(=O)N2CC3(CCN(C(=O)OC(C)(C)C)C3)C2)cnn1-c1nn2cccc2c(=O)[nH]1 [Q-0762]
IC50 [1, 3]: 200 nM
IC50 [2]: 2 nM

Cc1nc(-n2ncc(C(=O)N3CCC(C(F)(F)F)CC3)c2C)[nH]c(=O)c1Cl [Q-0421]
IC50 [1, 3]: 700 nM
IC50 [2]: 3 nM

Cc1c(C(=O)N2CCC3(CN(C(=O)OC(C)(C)C)C3)C2)cnn1-c1nn2cccc2c(=O)[nH]1 [Q-0748]
IC50 [1, 3]: 900 nM
IC50 [2]: 4 nM

Cc1c(C(=O)N2CCC(CC(F)(F)F)CC2)cnn1-c1nc2ccsc2c(=O)[nH]1 [Q-0704]
IC50 [1, 3]: 200 nM
IC50 [2]: 2 nM

From patent publication US9963462B2 (priority 2015, dated 2018)
